Source: publication PMC10999543, “Identification of kinase modulators as host-directed therapeutics against intracellular methicillin-resistant Staphylococcus aureus” (Frontiers in Cellular and Infection Microbiology, 2024)
Read-outs that look alike come from different tables or passages of the source.

How the values were obtained:
[1] = system: intracellular MRSA; assay type: cell-based, Staphylococcus aureus; details: for %GFP+ rep 1 / z-scoreMRSA+ rep 1: replicate 1; for %GFP+ rep 2 / z-scoreMRSA+ rep 2: replicate 2; for %GFP+ rep 3 / z-scoreMRSA+ rep 3: replicate 3; for z-scoreMRSA+ mean: mean of 3 replicates
How it was run: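 HeLa cells were infected with GFP-expressing MRSA (mean MOI 6.8) for 1 h, treated with 30 µg/ml gentamicin for 15 min, then incubated overnight at 37°C with kinase inhibitors and 5 µg/ml gentamicin. Flow cytometry gave % GFP-positive cells, with cell count as viability. Hits were z-score ≤ -2 (infection) and ≥ -3 (count) versus DMSO.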

[2] = system: HeLa cells; assay: Compound screen by flow cytometry: HeLa cell count as surrogate readout of cell viability (z-scoreHeLa); assay type: cell-based, human; details: for cell count rep 1 / z-scoreHeLa rep 1: replicate 1; for cell count rep 2 / z-scoreHeLa rep 2: replicate 2; for cell count rep 3 / z-scoreHeLa rep 3: replicate 3; for z-scoreHeLa mean: mean of 3 replicates
How it was run: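 The viability surrogate was the count of fixed HeLa cells by flow cytometry, converted to z-scores against DMSO controls with values deviating two-fold excluded. Before counting, cells had been infected with MRSA for 1 h and cleared of extracellular bacteria with gentamicin. They were then exposed overnight to kinase inhibitors in triplicate.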

[3] = PKIS compound screen raw data, MRSA-infected HeLa cells
[4] = PKIS compound screen, MRSA-infected HeLa cells
[5] = PKIS compound screen, Yes/No call
[6] = PKIS compound screen, Yes/No call (effect without cell death)
[7] = PKIS compound screen, Yes/No call on z-scoreMRSA+
[8] = PKIS compounds raw data, MRSA-infected HeLa cells
[9] = PKIS compound screen raw data, HeLa cell count
[10] = PKIS compound screen, HeLa cell count
[11] = PKIS compound screen, Yes/No call on z-scoreHeLa
[12] = PKIS compounds raw data, HeLa cell count
[13] = compound screen, MRSA-infected HeLa cells
[14] = compound screen, HeLa cell count

Structure (SMILES)	%GFP+ rep 1 [1, 3]	%GFP+ rep 2 [1, 3]	%GFP+ rep 3 [1, 3]	z-scoreMRSA+ mean [1, 4]	z-scoreMRSA+ rep 1 [1, 4]	z-scoreMRSA+ rep 2 [1, 4]	z-scoreMRSA+ rep 3 [1, 4]	effect [1, 5]	hit [1, 6]	effect [1, 7]	z-scoreMRSA+ mean ([1]; PKIS compound screen)	z-scoreMRSA+ rep 1 ([1]; PKIS compound screen)	cell count rep 1 [2, 9]	cell count rep 2 [2, 9]	cell count rep 3 [2, 9]	z-scoreHeLa mean [2, 10]	z-scoreHeLa rep 1 [2, 10]	z-scoreHeLa rep 2 [2, 10]	z-scoreHeLa rep 3 [2, 10]	cell death [2, 11]	also measured
Cc1cn2c(=O)cc(N3CCOCC3)nc2n1Cc1cccc(Cl)c1Cl [GSK2334006A]	10.9%	13.1%	15.5%	-1.80	-2.11	-1.72	-1.57	No	No	No	-0.59	-0.75	38408	33023	28416	1.52	1.39	1.33	1.85	No	z-scoreMRSA+ rep 2 ([1]; PKIS compound screen): -1.01; z-scoreMRSA+ rep 3 ([1]; PKIS compound screen): -0.0127; %GFP+ rep 1 [1, 8]: 23.2%; %GFP+ rep 2 [1, 8]: 20.8%; %GFP+ rep 3 [1, 8]: 27.2%; cell death [2, 5]: No; z-scoreHeLa mean ([2]; PKIS compound screen): -0.32; z-scoreHeLa rep 1 ([2]; PKIS compound screen): -0.18; z-scoreHeLa rep 2 ([2]; PKIS compound screen): -0.55; z-scoreHeLa rep 3 ([2]; PKIS compound screen): -0.25; cell count rep 1 [2, 12]: 5750; cell count rep 2 [2, 12]: 5179; cell count rep 3 [2, 12]: 5208
Cc1nn2c(=O)cc(N3CCOCC3)nc2n1Cc1cccc(Cl)c1Cl [GSK2342769A]	10.7%	10.7%	15.0%	-2.08	-2.16	-2.38	-1.70	No	No and Yes	Yes	-0.59	-0.67	31673	24146	21902	0.21	0.25	-0.19	0.58	No	z-scoreMRSA+ rep 2 ([1]; PKIS compound screen): -0.54; z-scoreMRSA+ rep 3 ([1]; PKIS compound screen): -0.55; %GFP+ rep 1 [1, 8]: 23.6%; %GFP+ rep 2 [1, 8]: 23.2%; %GFP+ rep 3 [1, 8]: 24.3%; cell death [2, 5]: No; z-scoreHeLa mean ([2]; PKIS compound screen): -1.49; z-scoreHeLa rep 1 ([2]; PKIS compound screen): -1.68; z-scoreHeLa rep 2 ([2]; PKIS compound screen): -1.59; z-scoreHeLa rep 3 ([2]; PKIS compound screen): -1.19; cell count rep 1 [2, 12]: 3246; cell count rep 2 [2, 12]: 3614; cell count rep 3 [2, 12]: 3721
O=c1cc(N2CCOCC2)nc2n(Cc3cccc(Cl)c3Cl)c(C3CC3)nn12 [GSK2358994A]	12.1%	13.2%	14.9%	-1.74	-1.78	-1.70	-1.73	–	No	No	–	–	42747	35107	37884	2.50	2.13	1.69	3.69	No	–
CNc1nc(-c2ccc3c(N)n[nH]c3c2)cc(N2C[C@@H](C(=O)NC3CCCCC3)OC[C@H]2C)n1 [GSK2375584A]	21.4%	23.1%	26.2%	–	–	–	–	–	–	–	–	–	30717	29074	21029	–	–	–	–	–	effect ([1]; Yes/No call from z-scoreMRSA+): No; hit ([1]; Yes/No: effect without cell death): No; z-scoreMRSA+ mean [1, 13]: 1.02; z-scoreMRSA+ rep 1 [1, 13]: 0.70; z-scoreMRSA+ rep 2 [1, 13]: 1.01; z-scoreMRSA+ rep 3 [1, 13]: 1.36; cell death ([2]; Yes/No call from z-scoreHeLa): No; z-scoreHeLa mean [2, 14]: 0.38; z-scoreHeLa rep 1 [2, 14]: 0.09; z-scoreHeLa rep 2 [2, 14]: 0.65; z-scoreHeLa rep 3 [2, 14]: 0.41
